From paper PMC10287695, “Non-covalent inhibitors of thioredoxin glutathione reductase with schistosomicidal activity in vivo” (Nature Communications, 2023)
“And” between values parts separate entries of the source, which are not always exact repeats. Identical values can stand only once. Like-named read-outs stand apart in the source and are kept apart here.

What was measured:
[1] = target: T1, TGR (Schistosoma mansoni, UniProt Q962Y6, X597U); test: NADPH consumption (oxidase activity); assay type: biochemical, S. mansoni; details: replicates
T1 construct: made in house
Method: TRi-1, Stattic (both at 50 µM) and AF (20 µM) were incubated with 1 ml of 500 nM TGR and 100 µM NADPH in TGR reaction buffer for 30 min. The samples were desalted using a Zeba spin desalting column (Thermo Fisher Scientific) and 100 µl of the desalted sample was combined with 100 µl of 100 µM NADPH. NADPH consumption was monitored at 340 nm in triplicate. Compounds 1, 4, 6, and 7 (50 µM) were tested in the same fashion without the desalting step and with a first incubation step of 30 min for 6 and 7 and 2 h for 1 and 4.

[2] = target: T1, TGR; test: Superoxide production (pyrogallol red); assay type: biochemical, S. mansoni; details: replicates
Method: The production of superoxide by TGR was determined by monitoring reaction of superoxide with pyrogallol red[80]. Briefly, a 1 ml reaction mix (500 nM TGR, 100 µM NADPH, and 20–50 µM inhibitor) was incubated at room temperature for 30 min for fast inhibitors, or 2 h for slow inhibitors. For irreversible inhibitor controls TRi-1 (synthesized in house as reported[45]), Stattic (Cayman Chemical), and AF (Cayman Chemical), the samples were desalted using a Zeba spin desalting column. 100 µL of sample was combined with pyrogallol buffer with and without superoxide dismutase (SOD) (50 µM pyrogallol red, 300 µM NADPH; ± 10 units SOD). The reaction was measured at A340 and A540 simultaneously for 2 h.

[3] = system: S. mansoni adult worms in mice; test: Schistosomicidal efficacy in infected mice, adult worms (42 d.p.i.); assay type: in vivo; details: for Egg burden, Treated, individual mice / Worm burden, Treated, individual mice: Adult worm, listed as 8VP192; for Egg burden, Treated, individual mice: eggs per 50 mg liver (Fig. 6); for decrease in egg burden / decrease in worm burden: mice
Method: (§1) To assess the efficacy of the compounds in vivo against juvenile and adult worms, five female Swiss-Webster mice were randomly assigned for the control and experiment groups using a randomization tool embedded in GraphPad Prism. Mice were percutaneously exposed for 1 h to about 80 S. mansoni cercariae. Three- and six-weeks post infection, respectively, for juvenile and adult worms, mice were treated depending on their weight with formulations of the compounds, while the control mice received only the vehicle. Compounds were formulated with 10% DMSO and 10% Tween-80, and vortexed to obtain a uniform mixture. The mixture was sonicated twice for 5 min each time using a digital ultrasonic cleaner heated to 50 °C. Sodium chloride 0.9% (80% normal saline) was added to the mixture, briefly vortexed and sonicated one more time using the same conditions as previous. The investigators were blinded by which group of mice received a treatment and the vehicle, as injection was done by technicians from the Comparative Research Center of Rush University Medical Center. Using a 26 G, 3/8 in intradermal bevel needle, each mouse was administered intraperitoneally with 100 µl of the formulated compound suspension at 50 mg/kg, 100 mg/kg and 200 mg/kg. Mice treated three weeks post infection for juvenile worms were euthanized three weeks post treatment and mice treated six weeks post infection were euthanized one week post treatment with 0.018 ml of Euthasol and 5.85 mg/ml heparin and perfused. The mesenteric and hepatic portal veins of the mice were carefully scanned under the microscope to extract any remaining S. mansoni adult worms and worm burdens were determined. Egg burden was determined by weighing 50 mg of liver tissue from each of treated and control mice. The liver tissues were digested with 5% KOH at 37 °C overnight and washed twice with PBS. The number of eggs per 50 mg of liver tissue was determined using a Keyence BZ-X800 microscope using the egg autofluorescence.

[4] = system: S. mansoni juvenile worms in mice; test: Schistosomicidal efficacy in infected mice, juvenile worms (21 d.p.i.); assay type: in vivo
Method: as §1

[5] = target: T2, TGR (Schistosoma mansoni, UniProt Q962Y6); assay type: biochemical, S. mansoni; details: for mode of inhibition (NADPH varied): steady state
T2 construct: made in house
T2 sequence (Q962Y6 1-598): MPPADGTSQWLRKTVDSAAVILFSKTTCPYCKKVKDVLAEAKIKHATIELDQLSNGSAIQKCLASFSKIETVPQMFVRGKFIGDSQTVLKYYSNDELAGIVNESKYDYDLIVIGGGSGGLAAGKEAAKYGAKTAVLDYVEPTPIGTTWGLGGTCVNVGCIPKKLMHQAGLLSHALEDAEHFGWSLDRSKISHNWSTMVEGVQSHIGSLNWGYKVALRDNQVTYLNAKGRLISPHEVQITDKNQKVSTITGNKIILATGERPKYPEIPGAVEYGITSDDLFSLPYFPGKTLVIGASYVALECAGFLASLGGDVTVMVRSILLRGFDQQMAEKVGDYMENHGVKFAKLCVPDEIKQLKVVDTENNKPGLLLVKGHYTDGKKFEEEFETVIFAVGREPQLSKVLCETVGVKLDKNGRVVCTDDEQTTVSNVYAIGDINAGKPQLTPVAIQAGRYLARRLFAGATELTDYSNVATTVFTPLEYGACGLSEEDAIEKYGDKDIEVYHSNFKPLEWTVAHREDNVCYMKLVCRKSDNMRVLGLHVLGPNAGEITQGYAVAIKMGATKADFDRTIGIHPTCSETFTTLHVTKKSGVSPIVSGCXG
Method: Master mixes with varying concentrations of NADPH were made, each with 2 nM TGR in reaction buffer. Inhibitor (2 µl) was added to a 96 well microplate in triplicate for each NADPH and inhibitor concentration, and 192 µl of the master buffer was added to each well. The reaction incubated for 15 min and 6 µl of 50 mM DTNB was added to each well. The kinetic rate was measured at A412 for 5 min.

[6] = second of the two columns per substance (condition not given)
[7] = 1 x 100 mg/kg i.p. at 42 d.p.i.
[8] = 2 x 100 mg/kg i.p. (1: bid at 42 d.p.i.; 6: at 42 and 45 d.p.i.)
[9] = mice, 2 x 100 mg/kg at 21 d.p.i. (juvenile worms)
[10] = inhibitor 3 µM, NADPH 3 (unit not given)
[11] = inhibitor 3 µM, NADPH 10 (unit not given)
[12] = inhibitor 3 µM, NADPH 30 (unit not given)
[13] = inhibitor 3 µM, NADPH 100 (unit not given)
[14] = inhibitor 3 µM, NADPH 300 (unit not given)
[15] = inhibitor 10 µM, NADPH 3 (unit not given)
[16] = inhibitor 10 µM, NADPH 10 (unit not given)
[17] = inhibitor 10 µM, NADPH 30 (unit not given)
[18] = inhibitor 10 µM, NADPH 100 (unit not given)
[19] = inhibitor 10 µM, NADPH 300 (unit not given)
[20] = inhibitor 30 µM, NADPH 3 (unit not given)
[21] = inhibitor 30 µM, NADPH 10 (unit not given)
[22] = inhibitor 30 µM, NADPH 30 (unit not given)
[23] = inhibitor 30 µM, NADPH 100 (unit not given)
[24] = inhibitor 30 µM, NADPH 300 (unit not given)

With Cc1oc(C2CCCCC2)nc1CN[C@@H]1C[C@@H]2C[C@H]([C@H]1C)C2(C)C [Compound 4] the “NADPH consumption (rate/ΔOD340)” value [1] was -0.0007477 and -0.0007112 and -0.0007089, the “Superoxide production, Pyrogallol red consumption monitored ΔA540” value ([2]; condition not given) was -0.0003594 and -0.0003266 and -0.0002925 and the “Superoxide production, Pyrogallol red consumption monitored ΔA540” value [2, 6] was -3.468e-5 and -5.202e-5.
For C#CCN(Cc1nc(-c2ccccc2)oc1C)[C@@H]1C[C@@H]2C[C@H]([C@H]1C)C2(C)C [Compound 6], the “NADPH consumption (rate/ΔOD340)” value [1] was -0.0004895 and -0.0006543 and -0.0006565, the “Egg burden, Treated, individual mice” value ([3]; 1 x 100 mg/kg) was 2001 and 2098 and 2074 and 2073 and the “Worm burden, Treated, individual mice” value ([3]; 1 x 100 mg/kg) was 18 and 19 and 11 and 14 and 12. The “Egg burden, Treated, individual mice” value ([3]; 2 x 100 mg/kg) was 2011 and 2073 and 2001 and 2098 and 2074, the “Worm burden, Treated, individual mice” value ([3]; 2 x 100 mg/kg) was 23 and 26 and 25 and 20 and 22 and the “decrease in egg burden” value [3, 7] was 3% and 2.8%. For the same molecule, the “decrease in worm burden” value [3, 7] was 34% and 33.9%, the “decrease in egg burden” value [3, 8] was 18% and 18.2% and the “decrease in worm burden” value [3, 8] was 38% and 38.39%. For the same molecule, the “Superoxide production, Pyrogallol red consumption monitored ΔA540” value ([2]; condition not given) was -0.0001397 and -0.0001399, the “Superoxide production, Pyrogallol red consumption monitored ΔA540” value [2, 6] was -5.466e-5 and -1.08e-5 and -2.977e-5 and the “Egg burden, Treated, individual mice” value ([4]; 2 x 100 mg/kg, Juvenile worm, eggs per 50 mg liver (Fig. 6), listed as 8VP192) was 2214 and 2212 and 2241 and 2153 and 2264. For the same molecule, the “Worm burden, Treated, individual mice” value ([4]; 2 x 100 mg/kg, Juvenile worm, listed as 8VP192) was 28 and 25 and 23 and 18 and 26, the “decrease in egg burden” value [4, 9] was 6.8% and 7% and the “decrease in worm burden” value [4, 9] was 15.5% and 16%.
With Cc1oc(C2CCCCC2)nc1C(=O)N[C@@H]1C[C@@H]2C[C@H]([C@H]1C)C2(C)C [Compound 7] the “NADPH consumption (rate/ΔOD340)” value [1] was -0.0008479 and -0.0008204 and -0.0008408, the “Superoxide production, Pyrogallol red consumption monitored ΔA540” value ([2]; condition not given) was -0.0001477 and -0.0001374 and -0.0001423 and the “Superoxide production, Pyrogallol red consumption monitored ΔA540” value [2, 6] was -5.501e-5 and -2.739e-5 and -2.749e-5. For the same molecule, the Vmax ([5]; 3 µM fast inhibitor) was 0.037 ± 0.0031 ΔA412/min, the Vmax ([5]; 10 µM fast inhibitor) was 0.023 ± 0.0006 ΔA412/min and the Vmax ([5]; 30 µM fast inhibitor) was 0.005 ± 0.0004 ΔA412/min. The “Rate, single replicate” value [5, 10] was 0.004865 and 0.004625 and 0.005262, the avg rate [5, 10] was 0.004917 and the “Rate, single replicate” value [5, 11] was 0.01865 and 0.01872 and 0.01883. For the same molecule, the avg rate [5, 11] was 0.01873, the “Rate, single replicate” value [5, 12] was 0.02703 and 0.02752 and 0.02778 and the avg rate [5, 12] was 0.02744. For the same molecule, the “Rate, single replicate” value [5, 13] was 0.03299 and 0.03283 and 0.0326, the avg rate [5, 13] was 0.03281 and the “Rate, single replicate” value [5, 14] was 0.02949 and 0.03026 and 0.03016. The avg rate [5, 14] was 0.02997, the “Rate, single replicate” value [5, 15] was 0.006166 and 0.006168 and 0.006055 and the avg rate [5, 15] was 0.00613. For the same molecule, the “Rate, single replicate” value [5, 16] was 0.014 and 0.01379 and 0.01325, the avg rate [5, 16] was 0.01368 and the “Rate, single replicate” value [5, 17] was 0.01713 and 0.02008. The avg rate [5, 17] was 0.01811, the “Rate, single replicate” value [5, 18] was 0.02098 and 0.02124 and 0.02207 and the avg rate [5, 18] was 0.02143. For the same molecule, the “Rate, single replicate” value [5, 19] was 0.009276 and 0.01989 and 0.01984, the avg rate [5, 19] was 0.01634 and the “Rate, single replicate” value [5, 20] was 0.002823 and 0.003641. For the same molecule, the avg rate [5, 20] was 0.003232, the “Rate, single replicate” value [5, 21] was 0.004132 and 0.003931 and 0.003739 and the avg rate [5, 21] was 0.003934. The “Rate, single replicate” value [5, 22] was 0.004888 and 0.004427 and 0.004285, the avg rate [5, 22] was 0.004533 and the “Rate, single replicate” value [5, 23] was 0.005567 and 0.005953 and 0.005104. The avg rate [5, 23] was 0.005541, the “Rate, single replicate” value [5, 24] was 0.006433 and 0.00613 and 0.007161 and the avg rate [5, 24] was 0.006575. For the same molecule, the “mode of inhibition (NADPH varied)” value [5] was “uncompetitive inhibition” and the “mode of inhibition (NADPH varied)” value ([5]; listed as 7 (9VP108)) was “uncompetitive behavior”.
